Experiments:
Assay type in all cases: in vivo
Myzus persicae (aphids) = assay: Contact test, mortality of aphids (MP); settings: 48 h, leaf, 2 days, read-out: grading of mortality, MP
Description: (§1) The activity of the compound was determined using a variety of insect pests. The compound was used in the form of liquid preparations containing 500 parts per million (ppm) by weight of the compound. The preparations were made by dissolving the compound in acetone and diluting the solutions with water containing 0.01% by weight of a wetting agent sold under the trade name "LISSAPOL" NX until the liquid preparations contained the required concentration of the compound. "Lissapol" is a Registered Trade Mark.
(§2) The test procedure adopted with regard to each pest was basically the same and comprised supporting a number of the pests on a medium which was usually a host plant or a foodstuff on which the pests feed, and treating either or both the pests and the medium with the preparations. The mortality of the pests was then assessed at periods usually varying from one to three days after the treatment.
(§3) The results of the tests are given in Table III for each of the compounds, at the rate in parts per million given in the second column as a grading of mortality designated as A, B or C wherein A indicates 80-100% mortality or knockdown, B indicates 50-79% mortality or knockdown and C indicates less than 50% mortality or knockdown.
(§4) In Table III the pest organism used is designated by a letter code and the pests species, the support medium or food, and the type and duration of test is given in Table II.

[1] = tested on: Nilaparvata lugens (green leaf hopper); assay: Contact test, mortality of Nilaparvata lugens (NL); settings: 144 h, cabbage leaf, 6 days, read-out: grading of mortality, NL
Description: as §1, §2, §3, §4

[2] = tested on: Musca domestica (houseflies - adults); assay: Contact test, mortality of houseflies (MD); settings: 24 h, cotton wool/sugar, 1 day, read-out: grading of mortality, MD
Description: as §1, §2, §3, §4

[3] = tested on: Blattella germanica (cockroach nymphs); assay: Residual test, mortality of cockroach nymphs (BG); settings: 72 h, plastic pot, 3 days, read-out: grading of mortality, BG
Description: as §1, §2, §3, §4

[4] = tested on: Heliothis viriscens (tobacco budworm); assay: whole plant or invertebrate; settings: in Gossypium hirsutum, 72 h, read-out: grading of mortality, HV
Description: as §1, §2, §3, §4

[5] = tested on: Chilo partellurs (Stem borers); assay: Residual test, mortality of stem borers (CP); settings: 72 h, oil seed rape leaf, 3 days, read-out: grading of mortality, CP
Description: as §1, §2, §3, §4

[6] = tested on: Diabrotica balteata (rootworm larvae); assay: Residual test, mortality of rootworm larvae (DB); settings: 72 h, filter paper/maize seed, 3 days, read-out: grading of mortality, DB
Description: as §1, §2, §3, §4

[7] = tested on: Tetranychus urticae (red spider mites - adult); assay: Contact test, mortality of red spider mites (TU); settings: 72 h, French bean leaf, 3 days, read-out: grading of mortality, TU
Description: as §1, §2, §3, §4
(red spider mites - adult)

In the case of `CC(C)(C=C(Cl)Cl)COCc1ccc(F)c(Oc2ccccc2)c1` [Compound 1, 2,2-dimethyl-1-(4-fluoro-3-phenoxybenzyloxy)-4,4-dichlorobut-3-ene], the mortality at 500 ppm (Myzus persicae (aphids)) is reported as under 50%, the mortality at 500 ppm [1] is reported as 80 to 100% and the mortality at 500 ppm [2] is reported as 80 to 100%. The mortality at 500 ppm [3] was 80 to 100%, the mortality at 500 ppm [4] was 80 to 100% and the mortality at 500 ppm [5] was 80 to 100%. For the same molecule, the mortality at 500 ppm [6] was 80 to 100%.
With `C=CC(C)(C)COCc1cccc(Oc2ccccc2)c1` [Compound 2, 3,3-Dimethyl-4-(3-phenoxybenzyloxy)but-1-ene] the mortality at 500 ppm (Myzus persicae (aphids)) was under 50%, the mortality at 500 ppm [1] was 80 to 100% and the mortality at 500 ppm [2] was 80 to 100%. It also gave a mortality at 500 ppm [3] of under 50%, a mortality at 500 ppm [4] of under 50% and a mortality at 500 ppm [6] of 80 to 100%.
Work on `CC(C)(C=C(Br)Br)COCc1cccc(Oc2ccccc2)c1` [Compound 3, 2,2-dimethyl-1-(3-phenoxybenzyloxy)-4,4-dibromobut-3-ene] yielded a mortality at 500 ppm (Myzus persicae (aphids)) of under 50%, a mortality at 500 ppm [1] of 50 to 79% and a mortality at 500 ppm [2] of under 50%. The mortality at 500 ppm [3] was under 50%, the mortality at 500 ppm [4] was under 50% and the mortality at 500 ppm [5] was 80 to 100%. It also gave a mortality at 500 ppm [6] of under 50%.
In the case of `CC(C)(C=C(Cl)Cl)COCc1cccc(Oc2ccccc2)c1` [Compound 4, 2,2-dimethyl-1-(3-phenoxybenzyloxy)-4,4-dichlorobut-3-ene], the mortality at 500 ppm [7] is reported as under 50%, the mortality at 500 ppm (Myzus persicae (aphids)) is reported as under 50% and the mortality at 500 ppm [1] is reported as 80 to 100%. It also gave a mortality at 500 ppm [2] of under 50%, a mortality at 500 ppm [3] of under 50% and a mortality at 500 ppm [4] of under 50%. It also gave a mortality at 500 ppm [6] of under 50%.
`C=CC(C)(C)COCc1ccc(F)c(Oc2ccccc2)c1` [Compound 5, 3,3-dimethyl-4-(4-fluoro-3-phenoxybenzyloxy)but-1-ene] was tested, and the mortality at 500 ppm [7] was 80 to 100%, the mortality at 500 ppm (Myzus persicae (aphids)) was 80 to 100% and the mortality at 500 ppm [1] was 80 to 100%. The mortality at 500 ppm [2] was 80 to 100%, the mortality at 500 ppm [3] was 80 to 100% and the mortality at 500 ppm [4] was under 50%. The mortality at 500 ppm [6] was 80 to 100%.
Work on `C=CC1(COCc2cccc(Oc3ccccc3)c2)CC1` [Compound 6, 1-(3-phenoxybenzyloxymethyl)-1-vinylcyclopropane] yielded a mortality at 500 ppm [7] of under 50%, a mortality at 500 ppm (Myzus persicae (aphids)) of under 50% and a mortality at 500 ppm [1] of 50 to 79%. It also gave a mortality at 500 ppm [2] of under 50%, a mortality at 500 ppm [3] of under 50% and a mortality at 500 ppm [4] of under 50%. For the same molecule, the mortality at 500 ppm [5] was under 50% and the mortality at 500 ppm [6] was under 50%.
Molecule `CC(C)(/C=C/Br)COCc1cccc(Oc2ccccc2)c1` [Compound 7, E-2,2-dimethyl-1-(3-phenoxybenzyloxy)-4-bromobut-3-ene] has a mortality at 500 ppm [7] of under 50%, a mortality at 500 ppm (Myzus persicae (aphids)) of under 50% and a mortality at 500 ppm [1] of 50 to 79%. For the same molecule, the mortality at 500 ppm [2] was under 50%, the mortality at 500 ppm [3] was under 50% and the mortality at 500 ppm [4] was under 50%. For the same molecule, the mortality at 500 ppm [5] was under 50% and the mortality at 500 ppm [6] was under 50%.
Molecule `C=CC(C)(CC)COCc1cccc(Oc2ccccc2)c1` (stereo not shown) [Compound 8, 3-Ethyl-3-methyl-4(3-phenoxybenzyloxy)but-1-ene] has a mortality at 500 ppm [7] of 80 to 100%, a mortality at 500 ppm (Myzus persicae (aphids)) of under 50% and a mortality at 500 ppm [1] of 80 to 100%. The mortality at 500 ppm [2] was 80 to 100%, the mortality at 500 ppm [3] was under 50% and the mortality at 500 ppm [4] was under 50%. The mortality at 500 ppm [6] was 80 to 100%.
`ClC(Cl)=CC1(COCc2cccc(Oc3ccccc3)c2)CC1` [Compound 9, 1-(2,2-dichlorovinyl)-1-(3-phenoxybenzyloxymethyl)cyclopropane] gave a mortality at 500 ppm [7] of under 50%, a mortality at 500 ppm (Myzus persicae (aphids)) of 80 to 100% and a mortality at 500 ppm [1] of 80 to 100%. It also gave a mortality at 500 ppm [2] of 80 to 100%, a mortality at 500 ppm [3] of 50 to 79% and a mortality at 500 ppm [4] of under 50%. The mortality at 500 ppm [6] was 50 to 79%.
With `CC(C)(C=CCl)COCc1cccc(Oc2ccccc2)c1` [Compound 10, 2,2-dimethyl-1-(3-phenoxybenzyloxy)-4-chlorobut-3-ene] the mortality at 500 ppm [7] was under 50%, the mortality at 500 ppm (Myzus persicae (aphids)) was under 50% and the mortality at 500 ppm [1] was 80 to 100%. For the same molecule, the mortality at 500 ppm [2] was 50 to 79%, the mortality at 500 ppm [3] was under 50% and the mortality at 500 ppm [5] was under 50%. For the same molecule, the mortality at 500 ppm [6] was 80 to 100%.
For `CC(C)(C=C(F)Cl)COCc1cccc(Oc2ccccc2)c1` [Compound 11, Z,E-2,2-dimethyl-1-(3-phenoxybenzyloxy)-4-chloro-4-fluorobut-3-ene], the mortality at 500 ppm [7] was under 50%, the mortality at 500 ppm (Myzus persicae (aphids)) was under 50% and the mortality at 500 ppm [1] was 80 to 100%. The mortality at 500 ppm [2] was 50 to 79%, the mortality at 500 ppm [3] was 50 to 79% and the mortality at 500 ppm [4] was 50 to 79%. For the same molecule, the mortality at 500 ppm [6] was 80 to 100%.
`C=CC(C)(C)COCc1cccc(Oc2ccccc2)n1` [Compound 12, 3,3-Dimethyl-4-(6-phenoxypyrid-2-yl)methoxy-but-1-ene] was tested, and the mortality at 500 ppm [7] was under 50%, the mortality at 500 ppm (Myzus persicae (aphids)) was under 50% and the mortality at 500 ppm [1] was 80 to 100%. The mortality at 500 ppm [2] was under 50%, the mortality at 500 ppm [3] was under 50% and the mortality at 500 ppm [4] was under 50%. For the same molecule, the mortality at 500 ppm [6] was 80 to 100%.
For `CC(C)(C=C(Cl)Cl)COCc1cccc(Oc2ccccc2)n1` [Compound 13, 2,2-dimethyl-1-(6-phenoxypyrid-2-yl)methoxy-4,4-dichlorobut-3-ene], the mortality at 500 ppm [7] was under 50%, the mortality at 500 ppm (Myzus persicae (aphids)) was 50 to 79% and the mortality at 500 ppm [1] was 80 to 100%. For the same molecule, the mortality at 500 ppm [2] was 50 to 79%, the mortality at 500 ppm [3] was 80 to 100% and the mortality at 500 ppm [4] was 80 to 100%. For the same molecule, the mortality at 500 ppm [6] was 80 to 100%.
`C=CC(C)(C)COCc1ccc(F)c(Cc2ccccc2)c1` [Compound 14, 3,3-Dimethyl-4-(3-benzyl-4-fluorobenzyloxy)but-1-ene] showed a mortality at 500 ppm [7] of under 50%, a mortality at 500 ppm (Myzus persicae (aphids)) of under 50% and a mortality at 500 ppm [1] of 80 to 100%. For the same molecule, the mortality at 500 ppm [2] was 80 to 100%, the mortality at 500 ppm [3] was 50 to 79% and the mortality at 500 ppm [4] was under 50%. It also gave a mortality at 500 ppm [6] of 80 to 100%.
`CC(C)(C=C(F)F)COCc1ccc(F)c(Oc2ccccc2)c1` [Compound 15, 2,2-dimethyl-1-(4-fluoro-3-phenoxybenzyloxy)-4,4-difluorobut-3-ene] gave a mortality at 500 ppm [7] of 80 to 100%, a mortality at 500 ppm (Myzus persicae (aphids)) of 80 to 100% and a mortality at 500 ppm [1] of 80 to 100%. It also gave a mortality at 500 ppm [2] of 80 to 100%, a mortality at 500 ppm [3] of 80 to 100% and a mortality at 500 ppm [4] of 80 to 100%. For the same molecule, the mortality at 500 ppm [6] was 80 to 100%.
`CC(C)(C=C(F)F)COCc1cccc(Oc2ccccc2)n1` [Compound 16, 2,2-dimethyl-1-(6-phenoxypyrid-2-yl)methoxy-1,1-difluorobut-1-ene] showed a mortality at 500 ppm [7] of 80 to 100%, a mortality at 500 ppm (Myzus persicae (aphids)) of 80 to 100% and a mortality at 500 ppm [1] of 80 to 100%. It also gave a mortality at 500 ppm [3] of 80 to 100%, a mortality at 500 ppm [4] of 80 to 100% and a mortality at 500 ppm [6] of 80 to 100%.
Molecule `CC(C)(C=C(F)F)COCc1cccc(Oc2ccccc2)c1` [Compound 17] has a mortality at 500 ppm [7] of under 50%, a mortality at 500 ppm (Myzus persicae (aphids)) of under 50% and a mortality at 500 ppm [1] of 80 to 100%. The mortality at 500 ppm [3] was 80 to 100%, the mortality at 500 ppm [4] was under 50% and the mortality at 500 ppm [6] was 80 to 100%.
Molecule `CC(C)(C=C(F)F)COCc1ccc(F)c(Cc2ccccc2)c1` [Compound 18] has a mortality at 500 ppm [7] of 50 to 79%, a mortality at 500 ppm (Myzus persicae (aphids)) of under 50% and a mortality at 500 ppm [1] of 80 to 100%. The mortality at 500 ppm [3] was 80 to 100%, the mortality at 500 ppm [4] was 80 to 100% and the mortality at 500 ppm [6] was 80 to 100%.
`CC(C)(C=C(F)Cl)COCc1cccc(Oc2ccccc2)n1` [Compound 19, E,Z-2,2-dimethyl-1-(6-phenoxypyrid-2-yl)methoxy-4-chloro-4-fluorobut-3-ene] gave a mortality at 500 ppm [7] of 50 to 79%, a mortality at 500 ppm (Myzus persicae (aphids)) of 50 to 79% and a mortality at 500 ppm [1] of 80 to 100%. For the same molecule, the mortality at 500 ppm [3] was 50 to 79%, the mortality at 500 ppm [4] was under 50% and the mortality at 500 ppm [6] was 80 to 100%.
Work on `CC(C)(C=C(Cl)Cl)COCc1ccc(F)c(Cc2ccccc2)c1` [Compound 20, 2,2-dimethyl-1-(3-benzyl-4-fluorobenzyloxy)-4,4-dichlorobut-3-ene] yielded a mortality at 500 ppm [7] of under 50%, a mortality at 500 ppm (Myzus persicae (aphids)) of under 50% and a mortality at 500 ppm [1] of 80 to 100%. It also gave a mortality at 500 ppm [3] of under 50%, a mortality at 500 ppm [4] of under 50% and a mortality at 500 ppm [6] of under 50%.
